# Assay results: US9034303B2, “Neuroprotective and neuro-restorative iron chelators and monoamine oxidase inhibitors and uses thereof” (priority 2010, dated 2015)
# “Also recorded” adds a separate entry of the source.
# Columns and labels:
# [1] = Stability in aqueous solution (PBS or saline) followed by HPLC; format: physicochemical; conditions: for Amount of compound remaining (%): 25° C., 0.5 mM
# Protocol: Using high pressure liquid chromatography (HPLC), the stability of each of the tested compounds was determined by following its respective chemical character over time in either phosphate buffered saline (PBS) and/or 0.85% saline solution (sodium chloride). In each case, 0.5 mM of the tested compound in PBS or saline solution was incubated at 25° C. or at 37° C. for 20 hours or, in some cases, up to two days (48 hours).
# [2] = Plasma stability in vitro in human blood plasma (LC-MS/MS); format: in vitro ADME; conditions: 10 μM, ~37° C.
# Protocol: The stability of the compound 3 was evaluated in human blood plasma. Human plasma was purchased from a commercial source (Bioreclamation, Inc., East Meadow, N.Y.). The plasma was prepared from blood collected using sodium fluoride/potassium oxalate as the anticoagulant. The plasma was stored at −20° C. prior to use. The plasma, once thawed for use, was centrifuged at ˜4000 rpm for five minutes and transferred to a new tube to remove any precipitate. The pH of the plasma was adjusted to 7.4. Compound 3 was added to plasma samples to achieve a final concentration of 10 μM and distributed into the required number of low retention tubes (triplicate tubes for each timepoint) for incubation at ˜37° C. in a water bath. Incubations were terminated at 0, 1, and 6 hours by the addition of three volumes of cold acetonitrile. The supernate after centrifugation was subjected to LC-MS/MS analysis. Stability of the test article was assessed by comparison of the peak area at one and six hours to that at time zero.
# [3] = biological target: rat brain MAO-B (Rattus norvegicus (Rat), UniProt P19643); assay: In vitro inhibition of rat brain MAO-B (14C-PEA substrate); format: biochemical
# rat brain MAO-B, sequence (P19643 whole entry): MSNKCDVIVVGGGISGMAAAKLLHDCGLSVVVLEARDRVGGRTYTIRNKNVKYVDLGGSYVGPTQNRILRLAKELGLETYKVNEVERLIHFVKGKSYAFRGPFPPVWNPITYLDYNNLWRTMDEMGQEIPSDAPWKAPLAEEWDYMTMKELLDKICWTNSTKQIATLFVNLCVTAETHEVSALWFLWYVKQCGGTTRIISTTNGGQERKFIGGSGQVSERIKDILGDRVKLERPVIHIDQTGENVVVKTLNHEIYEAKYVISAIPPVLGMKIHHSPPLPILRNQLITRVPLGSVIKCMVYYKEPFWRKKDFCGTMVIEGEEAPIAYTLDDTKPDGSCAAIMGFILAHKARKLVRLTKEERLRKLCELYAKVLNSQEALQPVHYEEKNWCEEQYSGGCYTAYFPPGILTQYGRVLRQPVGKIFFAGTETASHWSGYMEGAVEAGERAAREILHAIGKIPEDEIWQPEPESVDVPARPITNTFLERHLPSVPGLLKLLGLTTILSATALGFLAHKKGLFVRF
# Protocol: Rats are decapitated and the brains quickly taken into a weighted ice-cold sucrose buffer (0.32 M) and their weights determined. All subsequent procedures are performed at 0° C. The brains are homogenized in 0.32 M sucrose (one part tissue to 20 parts sucrose) in a Teflon glass homogenizer followed by the addition of sucrose buffer to a final concentration of 10% homogenate. The homogenates are centrifuged at 600 g for 15 min. The supernatant fractions are taken out and centrifuged at 4500 g for 30 min, the pellet diluted in 0.32 M sucrose buffer and kept frozen for later assaying of MAO.
# MAO-A and MAO-B activities are determined in rat brain homogenate in vitro following incubation with varying concentrations of the test compounds.
# The in vitro inhibitory activity of the compounds is tested against rat brain MAO-B. The test compounds are added to buffer containing 10^−7 M clorgylin and are incubated with the tissue homogenate for 30 or 60 min at 37° C. before addition of ^14C-PEA.
# The test compound was added to a suitable dilution of the enzyme preparation (70 μg protein for MAO-B and 150 μg MAO-A assay) in 0.1 M phosphate buffer (pH 7.4). The mixture was incubated together with […], a specific inhibitor of MAO-B (for determination of MAO-A) or 0.05 M clorgylin, a specific inhibitor of MAO-A (for determination of MAO-B). Incubation was carried for 0.5 or 1 h at 37° C. before addition of ^14C-5-hydroxytryptamine binoxalate (5-HT) (100 or 400 μM) for determination of MAO-A, or ^14C-phenylethylamine (^14C-PEA) 100 or 400 μM for determination of MAO-B, and incubation continued for 30 min or 20 min, respectively. The reaction was stopped with 2 M ice-cold citric acid, and the metabolites were extracted and determined by liquid-scintillation counting in cpm units.
# The reaction was stopped with 2 M ice-cold citric acid, and the metabolites were extracted with ethyl acetate and levels of radioactivity were determined by liquid-scintillation counting in CPM units. All assays were performed at least in duplicate and outcome was expressed as a mean±SEM. Data were analyzed by a Student's t test. Variations were considered statistically significant at a p value of 0.05.
# MAO-A and MAO-B activity was measured using radioactive substrates. The substrate for MAO-A was 5 HT and for MAO-B was PEA. When measuring the activity of MAO-A, the MAO-B activity was inhibited with deprenyl and when measuring the activity of MAO-B the activity of MAO-A was inhibited with clorgylin. Blank samples were produced using TCP to inhibit both of the enzymes. The metabolites were extracted to toluene and read in a β-counter. The results are expressed in relative activity and normalized to the amount of protein in the tissue.
# [4] = tested on: SHSY-5Y cells; assay: in vitro; conditions: read-out: LC50 (μM) SHSY-5Y; four hours incubation
# Protocol: (§1) The cytotoxicity of compound 3 was assessed in vitro using two standard cell lines, HepG2, derived from a human hepatocellular carcinoma, and SH-SY5Y, derived from a human neuroblastoma, both in the presence and absence of excess iron.
# (§2) HepG2 cells were maintained at ˜5% CO2, 37° C., and 95% relative humidity in minimal essential media (MEM) supplemented with 10% fetal bovine serum plus 0.1 mM non-essential amino acids, 2 mM L-glutamine, and penicillin/streptomycin. SH-SY5Y cells were maintained at ˜5% CO2, 37° C., and 95% relative humidity in a mixture of minimal essential media (MEM) and F12 K media (1:1, v:v) supplemented with 10% fetal bovine serum plus 0.1 mM non-essential amino acids, 2 mM L-glutamine, and penicillin/streptomycin. The cells were subcultured every two to three days and plated in tissue culture treated opaque white 96-well plates at a density of 1×10^4 cells/well and incubated at ˜5% CO2, 37° C., and 95% relative humidity overnight prior to initiation of the assay.
# (§3) A series of DMSO stocks of the test article at 100× of the final concentration were diluted 1:100 with fresh culture media (final DMSO concentration was 1%). The media from the plated cells was removed and replaced with 100 μL of media containing test article or tamoxifen with final concentrations ranging between 0.01 to 1000 μM in triplicate. Wells containing no cells were used as background controls. Tamoxifen was used as a known positive control and DMSO alone was used as a vehicle control. The cells were incubated for four hours at ˜5% CO2, 37° C., and 95% relative humidity.
# (§4) Cell viability was determined using a commercially available kit to determine ATP levels by luminescence. Briefly, the buffer and lyophilized substrate from the kit were equilibrated to room temperature. The buffer was used to reconstitute the substrate just prior to addition to the wells of the cell plate (100 μL per well). The plate was placed into the Tecan Infinite M200 plate reader, agitated for 10 minutes followed by a 10 minute wait period, then read using an integration time of 0.5 seconds with no attenuation.
# (§5) The mean luminescence from the test article treated cells was compared to that treated by DMSO only.
# [5] = in vitro; conditions: human
# Protocol: as §1, §2, §3, §4, §5
smiles,measurement,setting,value
"C#CCN(C)CCc1ccc(O)c2ncccc12 [Compound 3, 5-[2-(methyl-2-propyn-1-ylamino)ethyl]-8-quinolinol]",Stability in aqueous solution (in words),[1]; PBS and/or saline solution,highly stable chemically; also recorded: ^+Compound 3 was stable for up to 48 hours at 25 °C in both saline and PBS
same,Amount of compound remaining (%),"[1]; PBS, 0.5 hours",100%
same,Amount of compound remaining (%),"[1]; PBS, 2 hours",100%
same,Amount of compound remaining (%),"[1]; PBS, 20 hours",100%
same,Amount of compound remaining (%),"[1]; PBS, 48 hours",100%
same,Amount of compound remaining (%),"[1]; saline, 0.5 hours",100%
same,Amount of compound remaining (%),"[1]; saline, 2 hours",100%
same,Amount of compound remaining (%),"[1]; saline, 20 hours",100%
same,Amount of compound remaining (%),"[1]; saline, 48 hours",100%
same,Amount of compound 3 in human blood plasma,"[2]; 0 hour, reference time point",100%
same,Amount of compound 3 in human blood plasma,[2]; 1 hour,86%
same,Amount of compound 3 in human blood plasma,[2]; 6 hours,93%
same,IC50,[3],10 to 30 nM
same,Inhibition of rat brain MAO-B in vitro (in words),[3]; rat brain,potent inhibitors
same,CC50,[4],885 µM
same,CC50 at 4 h,[5],> 1000 µM
same,CC50 at 4 h,"[5]; LC50 (μM) SHSY-5Y, four hours incubation",865 µM
